Reference: patent US7727965B2, “C-glycosylisoflavones having alkylaminoalkoxyl substituent, preparation and use of the same” (Hainan Yangpu New & Special Medicine Co., Ltd., priority 2003, dated 2010)

Columns and labels:
[1] = test system: Kunming mice; experiment: Normal pressure hypoxia-resistance test in mice; assay type: in vivo; settings: 60 mg/Kg intraperitoneal, 0.5 hours before sealing in 250 ml bottles, examples tested as hydrochloride salts
Procedure: This test was carried out by a common method familiar to those skilled in the art. 32 Kunming mice (16 males vs. 16 females, body weights ranging from 18 to 20 g) were randomly divided into a control group and a administration group (each group having 16 animals), wherein the dosage was 60 mg/Kg mouse and 0.2 ml for each animal. After 0.5 hours of the intraperitoneal injection of test solutions, the mice were placed and sealed in 250 ml wide-mouthed bottles with ground stoppers. The times of death were recorded. Statistical analysis was conducted separately with respect to the blank control group and puerarin group, and P values were calculated.

[2] = cited from earlier work
[3] = cited from earlier work; remark: listed apart in the source
[4] = 568 patients administered with puerarin; cited from earlier work

Compound: O=c1c(-c2ccc(OCCCN3CCOCC3)cc2)coc2c([C@@H]3O[C@H](CO)[C@@H](O)[C@H](O)[C@H]3O)c(O)ccc12 [Example 4, 4′-(3-N-morpholinylpropoxy)-7-hydroxy-8-β-D-(1-deoxyglucosyl)isoflavone]
- Time to death [1]: 75.3 ± 7 min

Compound: CCN(CC)CCCOc1ccc(-c2coc3c([C@@H]4O[C@H](CO)[C@@H](O)[C@H](O)[C@H]4O)c(O)ccc3c2=O)cc1 [Example 6, 4′-(3-N-diethylaminopropoxy)-7-hydroxy-8-β-D-(1-deoxyglucosyl)-isoflavone]
- Time to death [1]: 73.5 ± 9 min

Compound: CCCN(CCC)CCCOc1ccc(-c2coc3c([C@@H]4O[C@H](CO)[C@@H](O)[C@H](O)[C@H]4O)c(O)ccc3c2=O)cc1 [Example 7, 4′-[3-N-di(n-propyl)aminopropoxy]-7-hydroxy-8-β-D-(1-deoxyglucosyl)-isoflavone]
- Time to death [1]: 69.8 ± 5 min

Compound: CCN(CC)CCCCOc1ccc(-c2coc3c([C@@H]4O[C@H](CO)[C@@H](O)[C@H](O)[C@H]4O)c(O)ccc3c2=O)cc1 [Example 14, 4′-(4-N-diethylaminobutoxy)-7-hydroxy-8-β-D-(1-deoxyglucosyl)isoflavone]
- Time to death [1]: 79.1 ± 8 min

Compound: CN1CCN(CCCCOc2ccc(-c3coc4c([C@@H]5O[C@H](CO)[C@@H](O)[C@H](O)[C@H]5O)c(O)ccc4c3=O)cc2)CC1 [Example 17, 4′-(4-N-methylpiperazinylbutoxy)-7-hydroxy-8-β-D-(1-deoxyglucosyl)-isoflavone]
- Time to death [1]: 59.8 ± 7 min

Compound: CCN1CCN(CCCCOc2ccc(-c3coc4c([C@@H]5O[C@H](CO)[C@@H](O)[C@H](O)[C@H]5O)c(O)ccc4c3=O)cc2)CC1 [Example 18, 4′-(4-N-ethylpiperazinylbutoxy)-7-hydroxy-8-β-D-(1-deoxyglucosyl)-isoflavone]
- Time to death [1]: 75.9 ± 6 min

Compound: O=c1c(-c2ccc(O)cc2)coc2c([C@@H]3O[C@H](CO)[C@@H](O)[C@H](O)[C@H]3O)c(O)ccc12 [puerarin, 4′,7-dihydroxy-8-β-D-C-glycosylisoflavone]
- Time to death [1]: 48.3 ± 5 min
- solubility of puerarin in 4.3% PVP aqueous solution ([2]; 4.3% PVP aqueous solution): 1.332 g/100 ml
- stability in an aqueous solution ([2]; relatively high pH value): poor stability
- solubility of puerarin in water ([2]; water): 0.462 g/100 ml
- oral bioavailability [3]: about 30%
- total incidence rate of febrile [4]: 5.81%
